In test [1] the test system is HSMM myotubes. Kind of test: Insulin signaling in HSMM myotubes: western blot of total and phosphorylated Akt, Erk, GSK3β. The note with it: myotubes treated with inhibitor, then insulin stimulation. The format is cell-based, human. The protocol:
Human skeletal muscle myoblasts (HSMM) were procured from PromoCell and were cultured in growth media recommended by the vendor. Confluent cultures were replaced with differentiation media (DMEM, 2% horse serum, pyruvate and HEPES) and cells allowed to differentiate for 7 to 10 days.
Human HSMM myotubes cells that were plated in 12 well plates the previous week were used. The media was aspirated and fresh media with appropriate dilutions of the NC and H3 siRNA for Hsp90 knockdown were added such that the final concentration in the wells of the plate was 100 nM. Mirus TKO transfection reagent was used for transfecting the cells. The plate was then incubated at 37° C. overnight.
The media was aspirated and the cells were washed off twice—first with warm PBS and second with 0.1% BSA containing growth media. The cells were then serum starved for 2-3 hours in 0.1% differentiation media containing the appropriate inhibitors at 37° C. followed by insulin stimulation for 5 minutes (0, 10, and 100 nM insulin).
The wells were then washed once with PBS and harvested into 100 μl of RIPA buffer containing protease and phosphatase inhibitors. The plate was placed on ice and, using a cell scraper, the cells were scraped from the plate. […]
Protein content was estimated by BCA assay and samples were prepared for gel electrophoresis and western blotting as described in subsequent sections. The total volume required to load 10 μg of total protein was calculated. […]
Visualization of proteins and quantification of western blots was performed as follows. […]
Each strip of membrane was taken out arranged in a clean flat surface. […] The bands were quantified using the BIORAD® software.
HSMM myotubes were sequentially (1) transfected with 3 different siRNAs targeting HSP90AB1 for 48 hours, (2) serum starved for 3 hours, and (3) subjected to stimulation of different concentrations of insulin (0, 10, 100 nM). Signaling events downstream of insulin stimulation were assessed by western blotting for levels of total and phosphorylated Akt, Erk, and GSK3β. […]

Test [2] relates to HSMM myotubes. Kind of test: Seahorse bioenergetic profiling of myotubes (OCR; oligomycin, CCCP, rotenone). The format is cell-based, human. The protocol:
HSMM myotubes cultured in wells in a Seahorse® assay cartridge were differentiated with 2% horse serum myocyte differentiation media for 7 days. Cells were transfected with either negative control scrambled siRNA or siHsp siRNA with TKO transfection reagents at concentration of 50 nM following vendor instructions as described above (Mirus Bio®). After 48 hours transfection, cells were subjected to Seahorse® bioenergetics analysis using drugs to modulate cell energetics, i.e., oligomycin, carbonyl cyanide-M-chlorophenyl hydrazine (CCCP), and rotenone. Oligomycin inhibits mitochondrial ATP synthase (complex V of ET chain) and allows analysis of glycolytic capacity. CCCP is an uncoupler that […] the mitochondrial membrane, thereby inducing maximum compensatory oxygen consumption, and allows analysis of uncoupled OCR. Rotenone inhibits NADH dehydrogenase (complex I of ET chain) and allows analysis of non-mitochondrial OCR.
To perform the assay, each well of the Seahorse® assay cartridge was washed with 1 ml running media. 500 ul of running media was added to each well and the plate was placed in an 37° C. (CO2 free) incubator. Drugs to modulate mitochondrial activity were prepared at a 10× (10 uM) concentration, so that after addition to the cartridge, the final concentration would be 1× (1 μM). Oligomycin (50 ul), CCCP (55 ul) and rotenone (55 ul) were added to ports A, B, and C of the cartridge and the cartridge was placed back in the incubator. The Seahorse® assay wizard was opened and the cycle parameters and times were setup. The Seahorse® assay was then performed using the instrument. After the Seahorse® assay, cells were lysed with 50 ul 450 mM NaOH and then neutralized with 5 ul Tris 6.8. DNA lysates were subjected to spectrophotometric analysis at OD260 using BioTek® Take3 DNA plate reader. The data were normalized with DNA contents of the cells.
HSMM myotubes were transfected with siRNA of either control or siHsp90β for 48 hours as described above, then subjected to Seahorse® bioenergetic profiling (XF24 Analyzer) using different mitochondrial drugs including oligomycin, CCCP, and rotenone; and monitored changes on oxygen consumption rate (OCR) that reflects either basal or maximum mitochondrial oxidative capacity. The results were normalized by DNA content.

Setting [3] is: myotubes treated at different concentrations.

“Also recorded” adds a separate entry of the source.

Consider `CCc1cc(-c2n[nH]c(C)c2-c2ccc3c(c2)OCCO3)c(O)cc1O` [CCT018159], for which, in the test with HSMM myotubes [1], the “level of pERK” value is on record as “no change; also recorded: No significant changes” and the “level of pGSK3β” value is listed as “no change; also recorded: No significant changes”. Further, the “insulin stimulated phosphorylation of Akt (phospho-AKT)” value in the test on HSMM myotubes [1] (higher concentration, 10 uM, vs untreated cultures) is given as “significantly enhanced; also recorded: increase”. Further, the “CCCP induced uncoupling response on mitochondrial metabolism” value with HSMM myotubes [2] (1 μM, 3 μM, and 10 μM (FIG. 10 legend)) is “did not have a significant effect”. Also, the “CCCP induced OCR” value in the test on HSMM myotubes [2] (10 uM) is recorded as “greater suppression”. Also, the “uncoupled OCR” value in the test on HSMM myotubes [2] (lower concentration, 1 μM) is reported as “increased”. In addition, in the test on HSMM myotubes [2] (setting [3]), the “basal OCR” value was “no observed change” and the “uncoupled OCR (CCCP induced)” value is listed as “decreased in a concentration dependent manner”.
